The test deals with P. falciparum 3D7 growth, pLDH absorbance. In words: P. falciparum 3D7 growth inhibition, dose response, strain 3D7 (AID 2305).

Drawing on PubChem BioAssay AID2305 (GlaxoSmithKline (GSK), 2010), this text covers IC50 for 87 molecules.

“And” between values parts separate entries of the source, which are not always exact repeats. Identical values can stand only once.

In general, IC50 refers to the point on the concentration scale where inhibition reaches its midpoint. Low readings indicate higher potency, high ones lower potency.

`CC[C@H]1CN2CC[C@H]1C[C@H]2[C@H](O)c1cc(-c2ccc(Cl)c(Cl)c2)nc2ccc(OC)cc12` yielded an IC50 of 0.12 µM.

Molecule `O=C(NCCCCCN1CCC(c2c[nH]c3ccccc23)CC1)Nc1cccc(Br)c1` came in with an IC50 of 1.11 µM. Molecule `O=C(N[C@H]1CCN(Cc2ccc(OCCCN3CCCCC3)cc2)C1)c1ccc2ccccc2c1` registered an IC50 of 0.76 µM. In turn, `O=C(/C=C/c1ccc(Cl)c(Cl)c1)N1CCC(CCN2CCC(c3nc4ccc(O)cc4[nH]3)CC2)CC1` came in with an IC50 of 0.34 µM. This IC50 is about 2.2-fold lower than that of the molecule before.

For the molecule `Cc1cc(-c2ccc3c(c2)CCN(CCC2CCC(NC(=O)/C=C/c4ccc(F)cc4)CC2)CC3)on1` (configuration not stated), the IC50 is 0.72 µM. In the case of `COc1ccc2nccc([C@@H](O)CN3CCC(NCCc4c[nH]c5ccccc45)CC3)c2c1` it was 0.21 µM; in that of `CN(CCN)Cc1ccc(-c2ccc(-c3nc4ccc(F)cc4[nH]3)s2)cc1`, 1.07 µM. Next, `COc1cccc2c(Oc3ccccc3C)ccnc12`: 1.23 µM; `O=C(NCCCCN1CCC(c2ccc3c(c2OCCOCCO)CCCC3)CC1)c1ccc(-c2ccc(C(F)(F)F)cc2)cc1`: 0.28 µM.

Turning to `Cc1cc(C(=O)NCc2ccc(-c3c(C)noc3C)cc2)n(-c2ccccc2)n1`, the concentration for half-maximal inhibition (IC50) turned out to be 0.82 µM. Against the preceding molecule, the IC50 is about 2.9-fold higher.

In turn, `CCCC(=O)c1cnc2c(OCCCc3cnc[nH]3)cccc2c1Nc1c(C)cccc1C` yielded an IC50 of 0.34 µM. Against the preceding molecule, the IC50 is about 2.4-fold lower. Turning to `OCC1CCCCN1Cc1cccc(-c2cccc(-c3nc4ccccc4[nH]3)c2)c1` (configuration not stated), the IC50 was found to be 0.78 µM. In the case of `Cc1cc(NC(=O)Nc2ccc3nccc(N4CCN(C)CC4)c3c2)ccc1Br` it was 0.09 µM; in that of `C(=NNc1nc2ccccc2[nH]1)c1ccccc1OCc1ccccc1`, 0.26 µM. Next, `Clc1ccc(OCCC2CCN(CCCCCCN3CCCCC3)CC2)cc1Cl`: 1.14 µM; `Cc1cc(NC(=O)Nc2cccc(C#N)c2)c2ccccc2n1`: 0.58 µM; `CC(C)C[C@H]1c2[nH]c3ccc(Cl)cc3c2CCN1C(=O)CCc1ccccc1`: 0.88 µM. As for `CS(=O)(=O)CCNCc1cccc(-c2ccc3c(Nc4cc(O)c(Cl)cc4F)ccnc3c2)c1`, the IC50 was determined as 0.25 µM.

In turn, `N#Cc1ccc2c(c1)CCN(CCC1CCC(NC(=O)/C=C/c3cc(Br)cs3)CC1)CC2` (configuration not stated) registered an IC50 of 1 µM.

In the case of `COc1cc(CNc2ncc(-c3ccsc3)c(-c3nccs3)n2)cc(OC)c1`, the IC50 came out at 0.13 µM. This IC50 lies about 7.7-fold lower than the previous one.

`Cc1nnc2c(NC(=O)NC3CCCC3)cc3cc(-c4ccc(CN(C)C)cc4)ccc3n12`: the IC50 amounted to 1.47 µM. Compared with the last molecule, the IC50 is about 11-fold higher. In the case of `Cc1cc(O)c(CN(C)Cc2ccc3c(c2)OCO3)cc1C(C)C` it was 0.74 µM; in that of `CN1CCCC(CN2CCN(Cc3ccc(-c4cccc(-c5nc6ccccc6[nH]5)c4)cc3)CC2)C1` (configuration not stated), 0.13 µM; in that of `O=C(Nc1ccc(I)cc1)Nc1ccc(Cn2ncc(N3CCCNCC3)c(Cl)c2=O)cc1`, 1.12 µM.

The molecule `CCN(CC)CCNc1c2ccc(Cl)cc2nc2ccc(OC)nc12` showed an IC50 of 0.74 µM. In the case of `O=C(Nc1cccc(CN2CCCN(Cc3cccc(Cl)c3)CC2)c1)c1ccc(Cl)c(Cl)c1` it was 0.99 µM. In the case of `O=C(Nc1cccc(C(F)(F)F)c1)N1CCOC(CCN2CCC(c3ccccc3)CC2)(c2ccc(Cl)c(Cl)c2)C1` (configuration not stated) it was 1.11 µM; in that of `CC(=O)N(C)C1CCN(Cc2cccc(-c3ccc(-c4nc5ccc(F)cc5[nH]4)cc3)c2)C1` (configuration not stated), 0.96 µM; in that of `Cc1cc(N(C)C)nc(Nc2ccc(NC(=O)COc3ccccc3)cc2)n1`, 1.76 µM.

Molecule `Fc1cc(Cl)ccc1Nc1ccnc2cc(-c3ccc(CN4CCNCC4)o3)ccc12` showed an IC50 of 0.28 µM. In the case of `COc1cc(OC)cc(-c2nc3c(C#N)c(OCCN(C)C)ccc3[nH]2)c1` it was 0.65 µM; in that of `CC1(C)CC(NCCCCCCCOc2ccc(OCc3ccccc3)cc2)CC(C)(C)N1`, 0.83 µM; in that of `O=C(Nc1ccccc1)Nc1ccc(-n2ccc(C(F)(F)F)n2)cc1`, 0.63 µM. In the case of `CC(=O)N(C)c1cccc(C(=O)Nc2ccc(-c3cccc(-c4nc5c(C)cccc5[nH]4)c3)cc2)c1` it was 0.65 µM. Next, `NCCCNc1ccc(-c2ccc(NC(=O)Nc3cc(C(F)(F)F)ccc3F)cc2)cn1`: 0.84 µM; `CC(Cc1ccc(Sc2ccccc2)cc1)NCC(O)c1cccc(C(F)(F)F)c1` (configuration not stated): 0.59 µM. Regarding `CCOc1cc(C(=O)N[C@@H](Cc2ccccc2)[C@H](O)CNCc2cc(OC)cc(OC)c2)cc(N2CCCS2(=O)=O)c1`, the IC50 worked out at 0.75 µM. Next, `COc1ccc2ncc(F)c(CCN3CC[C@H](NCc4cc(C#N)c5c(c4)OCCO5)[C@H](O)C3)c2c1`: 0.89 µM; `COc1cc2c(OC)cccc2cc1CNCCCCCCNCc1cc2cccc(OC)c2cc1OC`: 0.82 µM.

On to `Cc1nc2nc(N)nc(N)c2c(C)c1Cc1ccc(Cl)cc1`, for which the IC50 stood at 0.22 µM. Next, `CN1CCC(Oc2ccc(CN3CC[C@H](NC(=O)c4ccc(Cl)c(F)c4)C3)c3ccccc23)C1` (some centres not stated): 0.74 µM. Next, `CCN=C1NC2=C(CC(C(C)(C)C)CC2)C2(CCC(C(C)(C)C)CC2)S1` (configuration not stated): 0.83 µM. In turn, `CCCCN(CCCC)CCCCCCNc1c2ccccc2nc2ccccc12` gave an IC50 of 0.78 µM.

Turning to `Nc1cccc(CNCc2cccc(-c3cccc(-c4nc5ccc(C(F)(F)F)cc5[nH]4)c3)c2)c1`, the half-inhibitory concentration (IC50) worked out at 0.51 µM. In the case of `COc1ccc(N2C(=O)c3c(c4ccccc4n3C)C2c2ccccc2O)cc1` (configuration not stated) it was 0.12 µM; in that of `O=C(N[C@H]1CCN(Cc2ccc(OCCN3CCCC3)c(Cl)c2)C1)c1ccc(Cl)c(Cl)c1`, 0.92 µM; in that of `Nn1c(=O)oc2ccc(Cl)cc2c1=O`, 0.19 µM. In the case of `N#Cc1ccc2nc(-c3ccccc3)[nH]c2c1` it was 0.7 µM. Next, `CCOC(=O)C(CO)NC(=O)c1ccc([N+](=O)[O-])o1` (configuration not stated): 0.29 µM; `COc1ccc2c(NN=Cc3ccc(F)cc3)ccnc2c1`: 0.44 µM; `COc1ccc2nccc(NC(=O)N3CCC(NCc4cc5ccccc5[nH]4)CC3)c2n1`: 0.56 µM. `CCCCCN1C(=O)C(c2ccccc2)(c2ccccc2)N=C1N` showed an IC50 of 0.79 µM. In the case of `N#Cc1ccc(NC(=O)N2CCCN(CCCCCNC(=O)/C=C/c3ccc(Cl)c(Cl)c3)CC2)cc1` it was 0.77 µM. `Cc1ccc(NC(=O)Nc2ccccc2F)cc1-c1ccc(C(=O)Nc2ccncc2)cc1` registered an IC50 of 0.56 µM. Molecule `Cn1cncc1C(=O)Nc1cccc(-c2ccc(-c3nc4ccc(F)cc4[nH]3)cc2)c1` returned an IC50 of 0.73 µM.

As for `CCOc1ccccc1NC(=O)C(Sc1nc(C)cc(C)c1C#N)c1ccccc1` (configuration not stated), the IC50 worked out at 0.37 µM. Compared with the last molecule, the IC50 is about 2-fold lower. `Cc1ccc(C[C@@H](C)NC[C@H](O)c2cccc(C(F)(F)F)c2)cc1`: the IC50 was 0.88 µM and 0.71 µM. Next, `Cc1ccc(CC(C)NCC(O)c2cccc(Br)c2)cc1` (configuration not stated): 0.8 µM; `O=C(C=Cc1cn(-c2ccccc2)nc1-c1cccs1)N1CCN(c2ccncc2)CC1`: 0.72 µM; `CCCCN1CCN(c2cc(NS(=O)(=O)c3ccc(C(=O)Nc4ccc(C(F)(F)F)cc4)cc3)ccc2OC)CC1`: 0.66 µM. For `Cc1c(NCCCNCc2cc(Cl)cc(Cl)c2Cl)[nH]c2ccccc2c1=O`, the IC50 stood at 0.31 µM.

As for `CCNc1cc(C(=O)N[C@@H](Cc2ccccc2)[C@H](O)CNC(C)(C)c2cccc(OC)c2)cc(N2CCCC2=O)c1`, the IC50 stood at 0.14 µM. This IC50 is about 2.2-fold lower than that of the molecule before. In the case of `CCN(CC)CCNC(=O)c1ccc(NC(=O)c2cn(-c3ccccc3)nc2-c2cccs2)cc1` it was 0.26 µM; in that of `O=C(c1ccco1)N1CCN(c2nc(-c3ccc(Cl)cc3)nc3ccccc23)CC1`, 0.93 µM; in that of `CCCC(=O)Nc1ccc(OCCCN(Cc2ccccc2F)c2ccc(C#N)c(C(F)(F)F)c2)cc1`, 0.59 µM. Next, `CC(CN1CCN(C)CC1)C(=O)Nc1ccc(-c2ccc(-c3nc4ccccc4[nH]3)cc2)cc1` (configuration not stated): 0.95 µM; `CC(=NNc1nc2ccccc2s1)c1ccccn1`: 1.12 µM; `Cc1noc(C)c1-c1ccc2c(Nc3cccc4c3-c3ccccc3C4=O)c(C(=O)NCc3ccccc3I)cnc2c1`: 0.63 µM.

Take `COc1cc2nc(NCC3CCN(c4nc(N)c5cc(OC)c(OC)cc5n4)CC3)nc(N)c2cc1OC`: the IC50 turned out to be 0.78 µM. Molecule `CCN(CC)CCN(Cc1ccc(-c2ccc(C(F)(F)F)cc2)cc1)C(=O)CN1C(CCc2cccc(F)c2F)=NS(=O)(=O)c2ccccc21` returned an IC50 of 0.24 µM. In the case of `CC(C)CCN1CCCN(Cc2ccc(C(=O)Nc3ccc(Cl)cc3)cc2)CC1` it was 0.8 µM; in that of `Nc1c(Cl)cc(C(O)CNCCCCCOCCCc2ccc(O)c3ncccc23)cc1Cl` (configuration not stated), 0.99 µM. In the case of `CC(Cc1ccc(Oc2ccc(Cl)cc2)cc1)NCC(O)c1cccc(Cl)c1` (configuration not stated) it was 0.74 µM; in that of `N#Cc1ccc(-c2ccc(C(=O)NCCCCN3CC=C(c4ccc5c(c4OCC4CC4)CCCC5)CC3)cc2)cc1`, 0.62 µM. Next, `O=C(/C=C/c1ccc(Cl)c(Cl)c1)NCCCCCN1CCCN(C(=O)Nc2ccc(Cl)c(Cl)c2)CC1`: 0.86 µM; `CCCCCC(C)NC[C@@H](O)[C@H](Cc1ccccc1)NC(=O)c1cc(NCC)cc(N2CCCCS2(=O)=O)c1` (some centres not stated): 0.4 µM; `O=C(Nc1ccc(-c2ccc(-c3nc4ccccc4[nH]3)cc2)cc1)Nc1ccc(Cl)c(Cl)c1`: 0.1 µM. For `CC(C)(C)c1ccc(CNC(=O)COc2ccc(-c3nnc(-c4cccc([N+](=O)[O-])c4)o3)cc2[N+](=O)[O-])cc1`, the IC50 was found to be 0.93 µM. Next, `O=C(NC1CCN(Cc2ccc(O)cc2)CC1)c1ccc(Cl)c(Cl)c1`: 1.18 µM.

The molecule `CCN(CC)CCN(Cc1ccc(-c2ccc(C(F)(F)F)cc2)nc1)C(=O)Cn1cc(Cc2cnn(C)c2)c(=O)n2nc(-c3ccccc3)cc12` displayed an IC50 of 0.99 µM. The IC50 values of the last two molecules are within 1.5-fold of each other. In the case of `COc1cc(NC(=O)C(c2ccc(Cl)cc2)C(C)C)cc(OC)c1` (configuration not stated), the IC50 was found to be 0.72 µM. For `O=C(Nc1cccc(-c2nn3ccccc3c2-c2ccnc(Nc3ccc(-c4cc[nH]n4)cc3)n2)c1)c1c(F)cccc1F`, the IC50 was 0.19 µM. For the molecule `CCCCCCCN1CC[C@H](NC(=O)Nc2ccnc3ccc(OC)cc23)[C@H](C(=O)OCC)C1`, the IC50 turned out to be 0.43 µM. Next, `O=C(CSc1nn(-c2ccccc2)c(=S)s1)c1c[nH]c2ccccc12`: 1.09 µM; `COc1cc(C2NCC3(CCOCC3)c3cc4c(cc32)OCCO4)cc(OC)c1OC` (configuration not stated): 0.17 µM.

`C=CC(=O)Nc1ccc(Cl)cc1C(O)c1ccccc1` (configuration not stated) yielded an IC50 of 0.18 µM. In turn, `COc1ccc(-c2ccc(NC(=O)c3cccc(Cl)c3)cc2)cc1CN(C)CCO` came in with an IC50 of 0.71 µM. This IC50 lies about 3.9-fold higher than the previous one.
